# Test results: patent US8524686B2, “Composition for prevention or treatment of eye diseases” (Benebiosis Co., Ltd., priority 2008, dated 2013)
# Assays:
# VEGFR-2 = molecular target: T1, VEGFR-2 (Homo sapiens, UniProt P35968); assay: Western blotting of VEGF-stimulated VEGFR-2 phosphorylation in HREC; type: cell-based; conditions: endothelial cells (HREC), concentration-dependent, FIG. 4
# T1 construct: host or cells: human retinal endothelial cells (HREC), passages 4 to 6
# Procedure: (§1) Human retinal endothelial cells (HREC) were acquired from Sciencell (USA). The cells were cultured in sterilized endothelial cell medium (ECM, Sciencell, USA), and kept in a humidified 5% CO2 incubator at 37° C. Passages 4 to 6 of the HREC were used for testing.
# (§2) HREC were homogenized in a buffer containing 50 mM Tris-HCl (pH 8.0), 150 mM NaCl, 0.02% NaN3, 100 μg/mL PMSF, 1 μg/mL aprotinin and 1% Triton X-100. Protein concentration was measured using a Bio-Rad protein assay (Bio-Rad, USA). Thirty (30) μg of the total cell lysate sample was separated by SDS-PAGE based on size, and subjected to electrophoretic migration toward a nitrocellulose membrane using a Hoefer electrophoresis system (Amersham Biosciences, UK). For detection of target protein, the membrane was reacted with p-AKT, ERK, p-ERK, VEGFR-2 (flk-1, Q-20), VE-cadherin, FAK, paxillin, vincullin (SantaCruz Biotechnology, USA) and p-VEGFR-2 (Cell Signaling Tech., USA) antibodies. Detection was carried out using secondary horseradish peroxidase-bound anti-rabbit IgG antibody, anti-goat IgG antibody and anti-mouse IgG antibody (SantaCruz Biotechnology, USA), and using ECL chemiluminescence system (Amersham Biosciences, UK).
# (§3) VEGF-mediated VEGFR-2 activation plays an important role in tumor angiogenesis via the activation of VEGFR-2 downstream signal pathways in endothelial cells (25). […]
# FAK = assay: Immunofluorescence microscopy of anti-FAK stained focal adhesions in VEGF-stimulated HREC; type: cell-based, human; conditions: HREC stimulated with 50 ng/mL VEGF, FIG. 6 C
# Procedure: as §1
# (§4) HREC were inoculated onto 12 mm n-sterilized, gelatin-coated coverslip of 6-well tissue culture plate. In the presence or absence of sialyllactose, HREC were immobilized with 3.7% formalin with or without treatment with VEGF. Then, the cells were passed through […] Triton X-100 in PBS and washed three times with PBS. Non-specific sites were blocked with PBS-containing 1% bovine serum albumin, while gently shaking at ambient temperature for 30 minutes. After immersing the cells in a solution of FAK, paxillin, vincullin and VE-cadherin antibodies, the cells were incubated overnight at 4° C. After washing with PBS, the cells were further reacted with Alexa Flour 594-conjugate goat anti-mouse IgG (Molecular Probes, USA) and Alexa Flour 488-conjugate goat anti-rabbit IgG (Molecular Probes, USA) at ambient temperature for 1 hour. After washing with PBS, analysis was carried out by fluorescence microscopy. Primary antibodies previously bound to antigens or secondary antibodies were used as negative control. […]
# murine MMP-9 = assay: SDS-PAGE gelatin zymography of corneal and conjunctival epithelial cells of EDE mice; type: in vivo; conditions: FIG. 3
# Procedure: (§5) 6 to 8 weeks old C57BL/6 mice (Central Lab Animal, Seoul, Korea) were used for mouse model for dry eye syndrome. All animals were treated according to the ARVO Statement for the Use of Animals in Ophthalmic and Vision Research. Experimental dry eye (EDE) was induced by subcutaneous injection of 0.5 mg/0.2 mL scopolamine hydrobromide (Sigma-Aldrich, St. Louis, Mo.) in alternating hindquarters administered four times a day (9 AM, […], 3 PM and 6 PM) and by exposure to air and ≦40% ambient humidity for 18 hours per day, as previously reported (23). Four experimental groups were evaluated: untreated group (UT), EDE group (control), EDE+sialyllactose (1 mg/kg) group and EDE+sialyllactose (5 mg/kg) group.
# In order to determine the relative concentration of gelatinases in corneal and conjunctival epithelial cells, SDS-PAGE gelatin zymography was performed by using a previously reported method (24). Tissue was homogenized in a sample buffer containing 50 mM Tris-HCl (pH 8.0), 150 mM NaCl, 0.02% NaN3, […] phenylmethylsulfonyl fluoride (PMSF) and 1% Triton X-100. […]
# Gelatinolytic activity (105 kDa gelatinolytic band corresponds to murine MMP-9) was evaluated in corneal and conjunctival epithelial cells acquired from the UT, EDE and two treatment groups.
# MMP-9 = assay: RT-PCR of MMP-9 RNA transcripts in corneal epithelial cells of EDE mice; type: in vivo, murine
# Procedure: as §5
# (§6) Corneal and conjunctival epithelial cells acquired from six eyes per each test group. Total RNA was isolated using Trizol reagent (JBI Co., Korea) and kept at −80° C. until use. cDNA was synthesized by reverse transcriptase with an oligo dT-adaptor primer from an RNA PCR kit (Bioneer, Korea) according to the manufacturer's recommended protocol. […] In RT-PCR assay, utilization of the same quantity of mRNA was confirmed by analyzing expression level of mGAPDH. […]
# (§7) The level of RNA transcripts encoding MMP-9, IL-1β, TNF-α and the housekeeping gene GAPDH were evaluated by RT-PCR using the total RNA of the corneal epithelial cells obtained from each group (UT, EDE and EDE+sialyllactose). […]
# VE-cadherin = assay: Immunofluorescence microscopy of VEGF-induced intercellular adhesion (VE-cadherin staining) in HREC; type: cell-based, human; conditions: VEGF-stimulated HREC, one hour after VEGF stimulation, FIG. 7 C
# Procedure: as §1, §4
# [1] = tested on: human retinal endothelial cells (HREC); assay: Tube formation assay on Matrigel, VEGF-stimulated HREC; type: cell-based; conditions: 24 hours, concentration-dependent, FIG. 5
# Procedure: as §1
# Sialyllactose's inhibition effect against HREC's capillary-like network induced by VEGF was investigated using Matrigel-coated 24-well culture plate. Matrigel (13.9 mg/mL) was melted overnight at 4° C. and mixed with ECM medium at a ratio of 1:1. After adding 70 μL of Matrigel (6.95 mg/mL) diluted with ECM to each well of the 24-well culture plate, polymerization was performed for 1 hour at 37° C. For evaluation of tube formation, HREC were detached from the tissue culture plate, washed, resuspended in ECM medium containing 1% FBS (1×10^4 cells/well), and added to the Matrigel-coated well in the presence or absence of VEGF along with sialyllactose at various concentrations. The plate was incubated in a 5% CO2 incubator for 24 hours at 37° C., and capillary-like tube formed in each well of the plate was photographed using a Nikon optical microscope.
# The VEGF-mediated VEGFR-2 activation is closely associated with the angiogenic action of endothelial cells such as proliferation, migration, survival and tube formation (25). […]
# [2] = tested on: experimental dry eye (EDE) mice; assay: Measurement of tear production with cotton thread in mouse model of dry eye; type: in vivo, C57BL/6 mice; conditions: for Tear production (thread's wet length): n = 6, cotton thread 60 seconds
# Procedure: as §5
# Tear production was measured with cotton thread (Zone-quick; Oasis). The thread was held with jeweler forceps and applied to the ocular surface in the lateral canthus for 60 seconds. Wetting of the thread was measured in millimeters, using the scale on the cotton thread.
# Tear production at the ocular surface in the lateral canthus from the UT, EDE and two treatment groups (6 eyes/group/experiment, in four different sets of experiments) was measured with cotton thread.
# IL-1β = assay: RT-PCR of IL-1β RNA transcripts in corneal epithelial cells of EDE mice; type: in vivo, murine
# Procedure: as §5, §6, §7
# paxillin = assay: Immunofluorescence microscopy of anti-paxillin stained focal adhesions in VEGF-stimulated HREC; type: cell-based, human; conditions: HREC stimulated with 50 ng/mL VEGF, FIG. 6 G
# Procedure: as §1, §4
# TNF-α = assay: RT-PCR of TNF-α RNA transcripts in corneal epithelial cells of EDE mice; type: in vivo, murine
# Procedure: as §5, §6, §7
# AKT = assay: Western blotting of VEGF-induced AKT activation in HREC; type: cell-based, human; conditions: FIG. 4
# Procedure: as §1, §2, §3
# [3] = corneal epithelial cells, EDE group treated with sialyllactose, FIG. 2
# T1 sequence (P35968 20-1356): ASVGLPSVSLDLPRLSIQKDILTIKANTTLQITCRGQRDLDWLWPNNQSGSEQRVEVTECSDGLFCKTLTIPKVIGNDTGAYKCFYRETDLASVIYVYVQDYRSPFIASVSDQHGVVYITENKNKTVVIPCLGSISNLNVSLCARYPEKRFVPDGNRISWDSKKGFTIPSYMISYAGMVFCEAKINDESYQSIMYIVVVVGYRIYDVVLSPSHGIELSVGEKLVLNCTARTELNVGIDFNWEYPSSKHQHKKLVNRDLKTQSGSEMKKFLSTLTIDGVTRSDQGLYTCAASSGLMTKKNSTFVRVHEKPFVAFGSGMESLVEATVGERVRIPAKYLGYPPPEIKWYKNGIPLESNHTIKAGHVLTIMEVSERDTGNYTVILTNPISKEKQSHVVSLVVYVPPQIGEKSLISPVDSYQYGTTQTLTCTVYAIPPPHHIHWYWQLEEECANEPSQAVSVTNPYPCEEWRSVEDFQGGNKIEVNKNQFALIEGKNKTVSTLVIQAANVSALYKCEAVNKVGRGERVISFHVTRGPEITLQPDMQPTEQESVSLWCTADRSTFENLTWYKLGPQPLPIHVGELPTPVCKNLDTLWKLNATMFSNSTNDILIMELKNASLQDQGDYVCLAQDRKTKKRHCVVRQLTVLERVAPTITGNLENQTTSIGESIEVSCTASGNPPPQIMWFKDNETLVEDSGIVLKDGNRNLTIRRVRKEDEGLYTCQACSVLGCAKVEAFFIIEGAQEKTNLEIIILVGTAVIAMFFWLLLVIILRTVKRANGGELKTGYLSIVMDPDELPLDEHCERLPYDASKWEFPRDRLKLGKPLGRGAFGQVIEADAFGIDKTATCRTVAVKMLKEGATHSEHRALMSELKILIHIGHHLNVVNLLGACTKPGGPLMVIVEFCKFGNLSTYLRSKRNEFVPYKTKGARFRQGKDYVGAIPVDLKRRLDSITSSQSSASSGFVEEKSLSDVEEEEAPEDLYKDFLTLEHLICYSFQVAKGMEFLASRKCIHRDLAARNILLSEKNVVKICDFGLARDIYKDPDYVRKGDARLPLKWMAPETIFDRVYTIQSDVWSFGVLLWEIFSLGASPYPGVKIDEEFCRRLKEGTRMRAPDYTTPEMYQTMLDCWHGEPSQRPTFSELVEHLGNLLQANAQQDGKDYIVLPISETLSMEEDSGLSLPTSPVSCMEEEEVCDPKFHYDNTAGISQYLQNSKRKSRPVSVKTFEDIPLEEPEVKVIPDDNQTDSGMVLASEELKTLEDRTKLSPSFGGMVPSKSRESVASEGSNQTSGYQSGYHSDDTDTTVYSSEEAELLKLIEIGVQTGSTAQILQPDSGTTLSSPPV
smiles,measurement,setting,value
"CC(=O)N[C@H]1[C@H]([C@H](O)[C@H](O)CO)O[C@@](O[C@H]2[C@@H](O)[C@@H](CO)O[C@@H](O[C@H]3[C@H](O)[C@@H](O)C(O)O[C@@H]3CO)[C@@H]2O)(C(=O)O)C[C@@H]1O (stereo partly drawn) [sialyllactose, Neu5Ac α-2,3-D-Gal β-1,4-D-Glc]",VEGF-stimulated VEGFR-2 phosphorylation,VEGFR-2,strongly reduced
same,Focal adhesions immunostained with anti-FAK,FAK,markedly inhibited
same,"Gelatinolytic activity (105 kDa band, MMP-9)",murine MMP-9; EDE + sialyllactose 1 mg/kg,decreased gelatinolytic activity
same,"Gelatinolytic activity (105 kDa band, MMP-9)",murine MMP-9; EDE + sialyllactose 5 mg/kg,decreased gelatinolytic activity
same,"Decrease in expression of MMP-9 gene, 5 mg/kg compared with 1 mg/kg group",MMP-9; EDE + sialyllactose 5 mg/kg,larger decrease
same,Level of MMP-9 transcripts,MMP-9; [3],decreased
same,Sharp and continuous intercellular contact areas (VE-cadherin staining),VE-cadherin,recovered
same,Width and length of the tube,[1],significantly reduced
same,Tear production versus EDE group,[2]; EDE + sialyllactose test groups (1 and 5 mg/kg),statistically significant increased tear production
same,Tear production (thread's wet length),[2]; EDE mice + sialyllactose 1 mg/kg,1.55 ± 0.48 mm
same,Tear production (thread's wet length),[2]; EDE mice + sialyllactose 5 mg/kg,1.45 ± 0.34 mm
same,"Decrease in expression of IL-1β gene, 5 mg/kg compared with 1 mg/kg group",IL-1β; EDE + sialyllactose 5 mg/kg,larger decrease
same,Level of IL-1β transcripts,IL-1β; [3],decreased
same,Recruitment and increase of anti-paxillin immunostaining of focal adhesions,paxillin,certainly blocked
same,"Decrease in expression of TNF-α gene, 5 mg/kg compared with 1 mg/kg group",TNF-α; EDE + sialyllactose 5 mg/kg,larger decrease
same,Level of TNF-α transcripts,TNF-α; [3],decreased
same,VEGF-induced AKT activation,AKT,markedly reduced
